Data: patent US7763641B2, “Broadspectrum heterocyclic substituted phenyl containing sulfonamide HIV protease inhibitors” (Tibotec Pharmaceuticals Ltd., priority 2001, dated 2010)
Where two headings read alike, the source gives them in different places.

Key:
HIV strain F = experiment: Cellular anti-HIV assay, clinically isolated mutant strain F; format: cell-based; settings: FR=EC50 (mutant strain)/EC50 (HIV-1 strain LAI)
Experimental: (§1) HIV- or mock-infected MT4 cells were incubated for five days in the presence of various concentrations of the inhibitor. […] Cell viability is measured by measuring the concentration of MTT, a yellow, water soluble tetrazolium dye that is converted to a purple, water insoluble formazan in the mitochondria of living cells only. Upon solubilization of the resulting formazan crystals with isopropanol, the absorbance of the solution is monitored at 540 nm. The values correlate directly to the number of living cells remaining in the culture at the completion of the five day incubation. The inhibitory activity of the compound was monitored on the virus-infected cells and was expressed as EC50 and EC90. These values represent the amount of the compound required to protect 50% and 90%, respectively, of the cells from the cytopathogenic effect of the virus. […] The selectivity index (SI) (ratio CC50/EC50) is an indication of the selectivity of the anti-HIV activity of the inhibitor. Wherever results are reported as e.g. pEC50 or pCC50 values, the result is expressed as the negative logarithm of the result expressed as EC50 or CC50 respectively.
(§2) Because of the increasing emergence of drug resistant HIV strains, the present compounds were tested for their potency against clinically isolated HIV strains harboring several mutations (Table 7 and 8).
(§3) As a measure of the broad spectrum activity of the present compounds, the fold resistance (FR), defined as FR=EC50 (mutant strain)/EC50 (HIV-1 strain LAI), was determined.

HIV strain C = experiment: Cellular anti-HIV assay, clinically isolated mutant strain C; format: cell-based; settings: FR=EC50 (mutant strain)/EC50 (HIV-1 strain LAI)
Experimental: as §1, §2, §3

HIV strain E = experiment: Cellular anti-HIV assay, clinically isolated mutant strain E; format: cell-based; settings: FR=EC50 (mutant strain)/EC50 (HIV-1 strain LAI)
Experimental: as §1, §2, §3

HIV strain B = experiment: Cellular anti-HIV assay, clinically isolated mutant strain B; format: cell-based; settings: FR=EC50 (mutant strain)/EC50 (HIV-1 strain LAI)
Experimental: as §1, §2, §3

HIV strain A = experiment: Cellular anti-HIV assay, clinically isolated mutant strain A; format: cell-based; settings: FR=EC50 (mutant strain)/EC50 (HIV-1 strain LAI)
Experimental: as §1, §2, §3

HIV strain D = experiment: Cellular anti-HIV assay, clinically isolated mutant strain D; format: cell-based; settings: FR=EC50 (mutant strain)/EC50 (HIV-1 strain LAI)
Experimental: as §1, §2, §3

HIV-1 strain LAI = experiment: Cellular anti-HIV assay (MTT), wild type strain; format: cell-based; settings: for pEC50: MT4 cells, five days, MTT, HIV-1 strain LAI, Tables 1-6; for WT (pEC50 against wild type HIV-LAI strain): Table 8
Experimental: The compounds of the present invention were examined for anti-viral activity in a cellular assay. […] The cellular assay was performed according to the following procedure.

mock-infected MT4 cells = experiment: Toxicity on mock-infected cells (MTT)
Experimental: as §1, §3

[1] = pCC50 with mock transfected cells

Compound | F (FR towards mutant F) (HIV strain F) | C (FR towards mutant C) (HIV strain C) | E (FR towards mutant E) (HIV strain E) | B (FR towards mutant B) (HIV strain B) | A (FR value towards mutant A) (HIV strain A) | D (FR towards mutant D) (HIV strain D) | pEC50 (HIV-1 strain LAI) | WT (pEC50 against wild type HIV-LAI strain) (HIV-1 strain LAI) | Tox (pCC50) (mock-infected MT4 cells) | Tox (pCC50) (mock-infected MT4 cells; [1])
CC(C)CN(CC(O)C(Cc1ccccc1)NC(=O)OC1COC2OCCC12)S(=O)(=O)c1ccc(-c2csc(N)n2)cc1 (stereo not shown) [Compound 2] | 91 | 3.0 | 8.9 | 10.0 | 26 | 9.3 | 8.5 | 8.5 | 4.07 | 
CC(=O)Nc1nc(-c2ccc(S(=O)(=O)N(CC(C)C)CC(O)C(Cc3ccccc3)NC(=O)OC3COC4OCCC34)cc2)cs1 (stereo not shown) [Compound 3] | 151 | 7.4 | 17 | 8.9 | 39 | 26 | 8.3 | 8.3 |  | 4.11
CC(C)CN(CC(O)C(Cc1ccccc1)NC(=O)OC1COC2OCCC12)S(=O)(=O)c1ccc(-c2csc(NCCCN(C)C)n2)cc1 (stereo not shown) [Compound 6] | 79 | 1.2 | 6.6 | 4.7 | 6.2 | 3.8 | 7.5 | 7.5 | 4.69 | 
CC(=O)Nc1nc(-c2ccc(S(=O)(=O)N(CC(C)C)CC(O)C(Cc3ccccc3)NC(=O)OC3COC4OCCC34)cc2)c[nH]1 (stereo not shown) [Compound 32] | 7.2 | 0.33 | 0.95 | 1.0 | 1.3 |  | 7.7 | 7.7 |  | <4.0
CC(C)CN(CC(O)C(Cc1ccccc1)NC(=O)OC1COC2OCCC12)S(=O)(=O)c1ccc(-c2c[nH]c(NC(=O)OC3COC4OCCC34)n2)cc1 (stereo not shown) [Compound 33] | 2.6 | 0.2 | 0.19 | 0.66 | 0.71 |  | 6.7 | 6.7 |  | <4.0
Cc1nc(-c2ccc(S(=O)(=O)N(CC(C)C)CC(O)C(Cc3ccccc3)NC(=O)OC3COC4OCCC34)cc2)co1 (stereo not shown) [Compound 35] | 42 | 8.3 | 8.3 | 10.5 | 11 | 6.2 | 8.4 | 8.4 | <4.0 | 
CC(C)CN(C[C@@H](O)[C@H](Cc1ccccc1)NC(=O)O[C@H]1CO[C@H]2OCC[C@H]21)S(=O)(=O)c1ccc(-c2noc(-c3ccco3)n2)cc1 [Compound 38, [(1S,2R)-3-[N-[4-(5-(furan-2-yl)oxadiazol-3-yl)phenylsulfonyl]-N-(2-methylpropyl)amino]-2-hydroxy-1-(phenylmethyl)propyl]carbamic acid, [(3R,3aS,6aR)-hexahydrofuro[2,3-b]furan-3-yl]ester] | 44.7 | 6.8 | 9.5 | 23 | 30 | 14.8 | 8.4 | 8.4 |  | <4.49
CCCc1nc(-c2ccc(S(=O)(=O)N(CC(C)C)CC(O)C(Cc3ccccc3)NC(=O)OC3COC4OCCC34)cc2)co1 (stereo not shown) [Compound 40] | 219 | 4.1 | 41 |  | 5.0 | 12.9 | 8.5 | 8.5 | <4.49 | 
COc1cccc(-c2nc(-c3ccc(S(=O)(=O)N(CC(C)C)CC(O)C(Cc4ccccc4)NC(=O)OC4COC5OCCC45)cc3)co2)c1 (stereo not shown) [Compound 44] | 77 | 8.1 | 13 | 14 | 39 | 15 | 8.0 | 8.0 |  | <4.49
Cc1cc(-c2nc(-c3ccc(S(=O)(=O)N(CC(C)C)CC(O)C(Cc4ccccc4)NC(=O)OC4COC5OCCC45)cc3)co2)no1 (stereo not shown) [Compound 46] |  | 9.1 | 9.8 | 32 | 182 | 32 | 8.4 | 8.4 | <4.49 | 
CC(=O)OC(c1ccccc1)c1nc(-c2ccc(S(=O)(=O)N(CC(C)C)CC(O)C(Cc3ccccc3)NC(=O)OC3COC4OCCC34)cc2)co1 (stereo not shown) [Compound 48] |  | 5.8 | 6.9 | 25 | 89 | 17 | 8.3 | 8.3 | <4.0 | 
[(1S,2R)-2-hydroxy-3-[N-[4-(2-methylaminothiazol-4-yl)phenylsulfonyl]-N-(2-methylpropyl)amino]-1-(phenylmethyl)propyl]carbamic acid, [(3R,3aS,6aR)-hexahydrofuro[2,3-b]furan-3-yl]ester [Compound 1] | 42 | 1.2 | 5.0 | 2.1 | 5.4 | 7.9 | 8.5 | 8.5 |  | 4.19
